The source of these data is patent US11098010B2 (priority 2017, dated 2021).

Where a name gives a salt, the structure may show the parent alone. Where only a bound is given, the exact number is not on record here.

The subject of the first experiment is HBV rcDNA in HepDE19 cells. As to the kind of experiment: HepDE19 assay with bDNA quantitation of HBV rcDNA. The experiment is classed as cell-based, hepatitis B virus (HBV). As to conditions: HepDE19 cells, inhibition of rcDNA formation, 7 day incubation, top concentration 25 μM; read-out: DE-19 bDNA EC50. As for the experimental part:
HepDE19 Assay with bDNA Quantitation of HBV rcDNA:
HepDE19 cell culture system is a HepG2 (human hepatocarcinoma) derived cell line that supports HBV DNA replication and cccDNA formation in a tetracycline (Tet)-regulated manner and produces HBV rcDNA and a detectable reporter molecule dependent on the production and maintenance of cccDNA (Guo, et al., 2007, J. Virol. 81:12472-12484).
HepDE19 (50,000 cells/well) were plated in 96-well collagen-coated tissue-culture treated microtiter plates in DMEM/F12 medium supplemented with 10% fetal bovine serum, 1% penicillin-streptomycin and 1 μg/mL tetracycline and incubated in a humidified incubator at 37° C. and 5% CO2 overnight. Next day, the cells were switched to fresh medium without tetracycline and incubated for 4 hours at 37° C. and 5% CO2. The cells were treated with fresh Tet-free medium with compounds at concentrations starting at 25 μM and a serial, ½ log, 8-point, titration series in duplicate. The final DMSO concentration in the assay was 0.5%. The plates were incubated for 7 days in a humidified incubator at 37° C. and 5% CO2. Following a 7 day-incubation, the level of rcDNA present in the inhibitor-treated wells was measured using a Quantigene 2.0 bDNA assay kit (Affymetrix, Santa Clara, Calif.) with HBV specific custom probe set and manufacturers instructions. Concurrently, the effect of compounds on cell viability was assessed using replicate plates, plated at a density of 5,000 cells/well and incubated for 4 days, to determine the ATP content as a measure of cell viability using the cell-titer glo reagent (CTG; Promega Corporation, Madison, Wis.) as per manufacturer's instructions. The plates were read using a Victor luminescence plate reader (PerkinElmer Model 1420 Multilabel counter) and the relative luminescence units (RLU) data generated from each well was calculated as % inhibition of the untreated control wells and analyzed using XL-Fit module in Microsoft Excel to determine EC50 and EC90 (bDNA) and CC50 (CTG) values using a 4-parameter curve fitting algorithm.
Representative compounds of the invention were tested for their abilities to inhibit formation of relaxed circular DNA (rcDNA) in a HepDE19 assay, as described elsewhere herein.
As for `O=C(NC1CSc2c(C(=O)Nc3ccc(F)c(Cl)c3)cccc21)OCc1ccccn1` (stereo not drawn) [Compound 35, O-Pyridin-2-ylmethyl, N-(7-((3-chloro-4-fluorophenyl)carbamoyl)-2,3-dihydrobenzo[b]thiophen-3-yl) carbamate], the EC50 amounted to 0.78 µM. Consider `O=C(NC1CSc2c(C(=O)Nc3ccc(F)c(Cl)c3)cccc21)OCc1ccccn1` (stereo not drawn) [Compound 36, O-Pyridin-2-ylmethyl, N-(7-((3-chloro-4-fluorophenyl)carbamoyl)-2,3-dihydrobenzo[b]thiophen-3-yl) carbamate], for which the EC50 was > 25 µM.

Take `COC(=O)NC1c2cccc(C(=O)Nc3ccc(F)c(F)c3)c2CC1O` (stereo not drawn) [Compound 52, O-methyl, N-(4-((3,4-difluorophenyl)carbamoyl)-2-hydroxy-2,3-dihydro-1H-inden-1-yl) carbamate]: the EC50 turned out to be 19 µM.

The same experiment, now with this note: Hepatitis B virus, HepDE19, 168 h, HepDE19 cells, inhibition of rcDNA formation, 7 day incubation, top concentration 25 μM; read-out: DE-19 bDNA EC50.
Turning to `CN1C(=O)CC[C@H]1COC(=O)N[C@H]1CCc2c(C(=O)Nc3ccc(F)c(Cl)c3)ccc(F)c21` [Compound 39], the EC50 came out at 0.6 µM. Still for that read-out and setting: next, `Cc1cc(NC(=O)c2ccc(F)c3c2CC[C@@H]3NC(=O)OCc2ccccn2)ccc1F` [Compound 40, O-Pyridin-2-ylmethyl, N—(S)-(7-fluoro-4-((4-fluoro-3-methylphenyl)carbamoyl)-2,3-dihydro-1H-inden-1-yl) carbamate]: 0.62 µM.

Take `O=C(N[C@H]1CCc2c(C(=O)Nc3ccc(F)c(Cl)c3)ccc(F)c21)OCc1cn2ccccc2n1` [Compound 41, O-Imidazo[1,2-a]pyridin-2-ylmethyl, N—(S)-(4-((3-chloro-4-fluorophenyl)carbamoyl)-7-fluoro-2,3-dihydro-1H-inden-1-yl) carbamate]: the EC50 stood at 0.16 µM. The same measure, in the same setting: next, `O=C(N[C@@H]1c2cccc(C(=O)Nc3ccc(F)c(Cl)c3)c2C[C@H]1O)OCc1ccccn1` [Compound 51, O-Pyridin-2-ylmethyl, N-((1R,2R)-4-((3-chloro-4-fluorophenyl)carbamoyl)-2-hydroxy-2,3-dihydro-1H-inden-1-yl) carbamate]: 0.87 µM.

As for `CNC(=O)NC1c2cccc(C(=O)Nc3ccc(F)c(F)c3)c2CC1O` (stereo not drawn) [Compound 53, N-(3,4-difluorophenyl)-2-hydroxy-1-(3-methylureido)-2,3-dihydro-1H-indene-4-carboxamide], the EC50 is > 25 µM.

Still in this experiment, the particulars now being: Hepatitis B virus, HepDE19, 168 h, read-out: DE-19 bDNA EC50 (μM), HepDE19 cells, inhibition of rcDNA formation, 7 day incubation, top concentration 25 μM.
Turning to `COC(=O)NC1CSc2c(C(=O)Nc3ccc(F)c(Cl)c3)cccc21` (stereo not drawn) [Compound 37, O-Methyl, N-(7-((3-chloro-4-fluorophenyl)carbamoyl)-2,3-dihydrobenzo[b]thiophen-3-yl) carbamate], the EC50 came out at 0.95 µM.

Consider `O=C(N[C@H]1CCc2c(C(=O)Nc3ccc(F)c(Cl)c3)ccc(F)c21)OCc1cccc(N2CCOCC2)n1` [Compound 42, O-(6-Morpholinopyridin-2-yl)methyl, N—(S)-(4-((3-chloro-4-fluorophenyl)carbamoyl)-7-fluoro-2,3-dihydro-1H-inden-1-yl) carbamate], for which the EC50 was found to be 0.27 µM. On the same count and under the same terms, the value for `CN1C(=O)CC[C@@H]1COC(=O)N[C@H]1CCc2c(C(=O)Nc3ccc(F)c(Cl)c3)ccc(F)c21` [Compound 43] was 0.54 µM; that for `COc1cccc(COC(=O)N[C@H]2CCc3c(C(=O)Nc4ccc(F)c(Cl)c4)ccc(F)c32)n1` [Compound 44, O-(6-Methoxypyridin-2-yl)methyl, N—(S)-(4-((3-chloro-4-fluorophenyl)carbamoyl)-7-fluoro-2,3-dihydro-1H-inden-1-yl) carbamate] was 0.38 µM. Same read-out and setting: the value for `O=C(Nc1ccc(F)c(Cl)c1)c1ccc(F)c2c1CC[C@@H]2Nc1ncccn1` [Compound 45, (S)—N-(3-chloro-4-fluorophenyl)-7-fluoro-1-(pyrimidin-2-ylamino)-2,3-dihydro-1H-indene-4-carboxamide] was 0.25 µM; that for `COC(=O)N[C@@H]1c2cccc(C(=O)Nc3ccc(F)c(Cl)c3)c2C[C@H]1O` [Compound 46, O-Methyl, N-((1R,2R)-4-((3-chloro-4-fluorophenyl)carbamoyl)-2-hydroxy-2,3-dihydro-1H-inden-1-yl) carbamate] was 0.7 µM; that for `CNC(=O)N[C@@H]1c2cccc(C(=O)Nc3ccc(F)c(Cl)c3)c2C[C@H]1O` [Compound 47, (1R,2R)—N-(3-Chloro-4-fluorophenyl)-2-hydroxy-1-(3-methylureido)-2,3-dihydro-1H-indene-4-carboxamide] was 11 µM. With `CN(C)c1cccc(COC(=O)N[C@H]2CCc3c(C(=O)Nc4ccc(F)c(Cl)c4)ccc(F)c32)n1` [Compound 48, O-(6-(Dimethylamino)pyridin-2-yl)methyl, N—(S)-(4-((3-chloro-4-fluorophenyl)carbamoyl)-7-fluoro-2,3-dihydro-1H-inden-1-yl) carbamate], the EC50 turned out to be 0.16 µM. The same measure, in the same setting: the value for `COc1cnc(N[C@H]2CCc3c(C(=O)Nc4ccc(F)c(Cl)c4)ccc(F)c32)nc1` [Compound 49, (S)—N-(3-Chloro-4-fluorophenyl)-7-fluoro-1-((5-methoxypyrimidin-2-yl)amino)-2,3-dihydro-1H-indene-4-carboxamide] was 0.17 µM; that for `O=C(Nc1ccc(F)c(Cl)c1)c1ccc(F)c2c1CC[C@@H]2Nc1nccc(-c2ccccn2)n1` [Compound 50, (S)—N-(3-Chloro-4-fluorophenyl)-7-fluoro-1-((4-(pyridin-2-yl)pyrimidin-2-yl)amino)-2,3-dihydro-1H-indene-4-carboxamide] was 1 µM. The same measure, in the same setting: the value for `CC(C)(C)OC(=O)N1CC(F)(F)CC1COC(=O)N[C@H]1CCc2c(C(=O)Nc3ccc(F)c(Cl)c3)ccc(F)c21` (stereo partly drawn) [Compound 54, tert-Butyl 2-(((((S)-4-((3-chloro-4-fluorophenyl)carbamoyl)-7-fluoro-2,3-dihydro-1H-inden-1-yl)carbamoyl)oxy)methyl)-4,4-difluoropyrrolidine-1-carboxylate] was 0.99 µM; that for `O=C(N[C@H]1CCc2c(C(=O)Nc3ccc(F)c(Cl)c3)ccc(F)c21)OCC1CC(F)(F)CN1` (stereo partly drawn) [Compound 56, O-(4,4-Difluoropyrrolidin-2-yl)methyl, N—((S)-4-((3-chloro-4-fluorophenyl)carbamoyl)-7-fluoro-2,3-dihydro-1H-inden-1-yl) carbamate Hydrochloride] was 0.5 µM.

The same experiment, now with this note: read-out: DE-19 bDNA EC50; HepDE19 cells, inhibition of rcDNA formation, 7 day incubation, top concentration 25 μM.
For the molecule `COC(=O)NC1CSc2c(C(=O)Nc3ccc(F)c(F)c3)ccc(F)c21` (stereo not drawn) [Compound 55, O-Methyl, N-(7-((3,4-difluorophenyl)carbamoyl)-4-fluoro-2,3-dihydrobenzo[b]thiophen-3-yl) carbamate], the EC50 worked out at 1.2 µM. On the same count and under the same terms, next, `COC(=O)NC1CSc2c(C(=O)Nc3ccc(F)c(F)c3)ccc(F)c21` (stereo not drawn) [Compound 57, O-Methyl, N-(7-((3,4-difluorophenyl)carbamoyl)-4-fluoro-2,3-dihydrobenzo[b]thiophen-3-yl) carbamate]: > 25 µM; `COC(=O)NC1CSc2c(C(=O)Nc3ccc(F)c(Cl)c3)ccc(F)c21` (stereo not drawn) [Compound 58, O-Methyl, N-(7-((3-chloro-4-fluorophenyl)carbamoyl)-4-fluoro-2,3-dihydrobenzo[b]thiophen-3-yl) carbamate]: 0.79 µM; `COC(=O)NC1CSc2c(C(=O)Nc3ccc(F)c(Cl)c3)ccc(F)c21` (stereo not drawn) [Compound 59, O-Methyl, N-(7-((3-chloro-4-fluorophenyl)carbamoyl)-4-fluoro-2,3-dihydrobenzo[b]thiophen-3-yl) carbamate]: 12 µM.
